Values quoted from earlier work, collected in US11633409B2, “Solid preparation comprising dutasteride and method for preparing same” (JW PHARMACEUTICAL CORPORATION, priority 2017, dated 2023).
Where two headings read alike, the source gives them in different places.

Columns and labels:
[1] = not given; remark: listed apart in the source

equilibrium solubility (in Capmul MCM NF): 2.75 g/100 g
equilibrium solubility (in PEG 400): 0.39 g/100 g
equilibrium solubility (in Transcutol): 2.41 g/100 g
equilibrium solubility (in ethanol): 4.40 g/100 g
equilibrium solubility (in isopropanol): 3.06 g/100 g
equilibrium solubility (in propylene glycol): 1.34 g/100 g
solubility in water [1]: insoluble in water
Compound: C[C@]12C=CC(=O)NC1CCC1C2CC[C@@]2(C)C1CC[C@@H]2C(=O)Nc1cc(C(F)(F)F)ccc1C(F)(F)F (stereo partly shown) [dutasteride, Dutasteride]
